Reference: article PMC12396409, “Screening and hit evaluation of a microbial metabolite library against the pathogenic Plasmodium falciparum and Toxoplasma gondii parasites” (International Journal for Parasitology: Drugs and Drug …, 2025)
Like-named read-outs stand apart in the source and are kept apart here.

Experiments:
[1] = tested on: P. falciparum 3D7 parasites; experiment: P. falciparum growth inhibition assay, 1-cycle (72 h treatment), SYBR DNA staining (library screen at 2 μg/mL and dose-response); type: cell-based, Plasmodium falciparum; conditions: for activity at 2 µg/mL: Plasmodium falciparum
[2] = tested on: P. falciparum 3D7 parasites; experiment: P. falciparum growth inhibition assay, 2-cycle (120 h treatment), delayed-death screen and dose-response; type: cell-based, Plasmodium falciparum; conditions: for activity at 2 µg/mL: Plasmodium falciparum
[3] = tested on: T. gondii RH strain (RH-Tub-eYFP) tachyzoites; experiment: microbe, parasite or virus in culture; type: cell-based, Toxoplasma gondii
[4] = 3D7, P. falciparum, 72 h, screen at 2 μg/mL, replicate 1, read-out: Pf_72h_%Growth_Rep1
[5] = 3D7, P. falciparum, 72 h, screen at 2 μg/mL, replicate 2, read-out: Pf_72h_%Growth_Rep2
[6] = 3D7, P. falciparum, 120 h, screen at 2 μg/mL, replicate 1, read-out: Pf_120h_%Growth_Rep1
[7] = 3D7, P. falciparum, 120 h, screen at 2 μg/mL, replicate 2, read-out: Pf_120h_%Growth_Rep2
[8] = library screen at 2 μg/mL, 72 h, % growth, replicate 1
[9] = library screen at 2 μg/mL, 72 h, % growth, replicate 2
[10] = library screen at 2 μg/mL, 120 h, % growth, replicate 1
[11] = library screen at 2 μg/mL, 120 h, % growth, replicate 2
[12] = Toxoplasma gondii, 72 h, T. gondii, 72 h, screen at 2 μg/mL, replicate 1; read-out: Tg_72h_%Growth_Rep1
[13] = Toxoplasma gondii, 72 h, T. gondii, 72 h, screen at 2 μg/mL, replicate 2; read-out: Tg_72h_%Growth_Rep2
[14] = P. falciparum 3D7, 72 h, parasite screen at 2 μg/mL, % growth, replicate 1
[15] = P. falciparum 3D7, 72 h, parasite screen at 2 μg/mL, % growth, replicate 2
[16] = P. falciparum 3D7, 120 h, parasite screen at 2 μg/mL, % growth, replicate 1
[17] = P. falciparum 3D7, 120 h, parasite screen at 2 μg/mL, % growth, replicate 2
[18] = T. gondii, 72 h, parasite screen at 2 μg/mL, % growth, replicate 1
[19] = T. gondii, 72 h, parasite screen at 2 μg/mL, % growth, replicate 2
[20] = P. falciparum, 72 h, parasite screen 2 μg/mL, % growth, replicate 1
[21] = P. falciparum, 72 h, parasite screen 2 μg/mL, % growth, replicate 2
[22] = P. falciparum, 120 h, parasite screen 2 μg/mL, % growth, replicate 1
[23] = P. falciparum, 120 h, parasite screen 2 μg/mL, % growth, replicate 2
[24] = T. gondii, 72 h, parasite screen 2 μg/mL, % growth, replicate 1
[25] = T. gondii, 72 h, parasite screen 2 μg/mL, % growth, replicate 2
[26] = P. falciparum, 72 h, screen at 2 μg/mL, replicate 1
[27] = P. falciparum, 72 h, screen at 2 μg/mL, replicate 2
[28] = P. falciparum, 120 h, screen at 2 μg/mL, replicate 1
[29] = P. falciparum, 120 h, screen at 2 μg/mL, replicate 2
[30] = T. gondii, 72 h, screen at 2 μg/mL, replicate 1
[31] = T. gondii, 72 h, screen at 2 μg/mL, replicate 2

SMILES: COc1c(C[C@@H](C)OC(=O)Oc2ccc(O)cc2)c2c3c(C[C@@H](C)OC(=O)c4ccccc4)c(OC)c(=O)c4c(O)cc(OC)c(c5c(OC)cc(O)c(c1=O)c52)c43 [Calphostin C]
- activity at 2 µg/mL [1, 4]: 13.6%
- activity at 2 µg/mL [1, 5]: 9.2%
- activity at 2 µg/mL [2, 6]: 17%
- activity at 2 µg/mL [2, 7]: 9.44%
- percent parasite growth at 2 µg/mL ([3]; Toxoplasma gondii; T. gondii, 72 h, screen at 2 μg/mL, replicate 1; read-out: Tg_72h_%Growth_Rep1): 1%
- percent parasite growth at 2 µg/mL ([3]; Toxoplasma gondii; T. gondii, 72 h, screen at 2 μg/mL, replicate 2; read-out: Tg_72h_%Growth_Rep2): 2.07%

SMILES: CN(C)[C@H]1C(O)=C(C(N)=O)C(=O)[C@@]2(O)C(O)=C3C(=O)c4c(O)ccc(Cl)c4[C@@](C)(O)[C@H]3C[C@@H]12.Cl [Epichlortetracycline hydrochloride]
- Pf_72h_%Growth_Rep1 [1, 8]: 82.03%
- Pf_72h_%Growth_Rep2 [1, 9]: 85.38%
- Pf_120h_%Growth_Rep1 [2, 10]: 77.41%
- Pf_120h_%Growth_Rep2 [2, 11]: 79.95%
- Tg_72h_%Growth_Rep1 [3, 8]: 92.54%
- Tg_72h_%Growth_Rep2 [3, 9]: 103.55%

SMILES: O=C(O)/C=C/c1ccccc1 [Cinnamic acid]
- activity at 2 µg/mL [1, 4]: 90.3%
- activity at 2 µg/mL [1, 5]: 87.8%
- activity at 2 µg/mL [2, 6]: 147%
- activity at 2 µg/mL [2, 7]: 102%
- percent parasite growth at 2 µg/mL [3, 12]: 86.5%
- percent parasite growth at 2 µg/mL [3, 13]: 96.7%

SMILES: CC[C@H](C)[C@H]1C(=O)O[C@H](C(C)C)C(=O)N(C)[C@@H](C(C)C)C(=O)O[C@H](C(C)C)C(=O)N(C)[C@@H](C(C)C)C(=O)O[C@H](C(C)C)C(=O)N1C [Enniatin B1]
- activity at 2 µg/mL ([1]; 3D7, library screen at 2 μg/mL, 72 h, % growth, replicate 1, read-out: Pf_72h_%Growth_Rep1): 4.56%
- activity at 2 µg/mL ([1]; 3D7, library screen at 2 μg/mL, 72 h, % growth, replicate 2, read-out: Pf_72h_%Growth_Rep2): 3.05%
- activity at 2 µg/mL ([2]; 3D7, library screen at 2 μg/mL, 120 h, % growth, replicate 1, read-out: Pf_120h_%Growth_Rep1): 5.98%
- activity at 2 µg/mL ([2]; 3D7, library screen at 2 μg/mL, 120 h, % growth, replicate 2, read-out: Pf_120h_%Growth_Rep2): 9.66%
- percent parasite growth at 2 µg/mL ([3]; Toxoplasma gondii; library screen at 2 μg/mL, 72 h, % growth, replicate 1; read-out: Tg_72h_%Growth_Rep1): 0.26%
- percent parasite growth at 2 µg/mL ([3]; Toxoplasma gondii; library screen at 2 μg/mL, 72 h, % growth, replicate 2; read-out: Tg_72h_%Growth_Rep2): 25.7%

SMILES: O=C(O)CCC(=O)OC[C@@H](NC(=O)C(Cl)Cl)[C@H](O)c1ccc([N+](=O)[O-])cc1 [Chloramphenicol succinate]
- activity at 2 µg/mL [1, 4]: 111%
- activity at 2 µg/mL [1, 5]: 86.6%
- activity at 2 µg/mL [2, 6]: 150%
- activity at 2 µg/mL [2, 7]: 95.2%
- percent parasite growth at 2 µg/mL ([3]; Toxoplasma gondii, 72 h, read-out: Tg_72h_%Growth_Rep1): 79.4%
- percent parasite growth at 2 µg/mL ([3]; Toxoplasma gondii, 72 h, read-out: Tg_72h_%Growth_Rep2): 97.4%

SMILES: O=C1NC(c2c[nH]c3ccc(O)cc23)=C/C1=C1\C(=O)Nc2ccccc21 [Violacein]
- activity at 2 µg/mL [1, 4]: 83.3%
- activity at 2 µg/mL [1, 5]: 90.2%
- activity at 2 µg/mL [2, 6]: 170%
- activity at 2 µg/mL [2, 7]: 91.7%
- percent parasite growth at 2 µg/mL [3, 12]: 85.9%
- percent parasite growth at 2 µg/mL [3, 13]: 106%

SMILES: O=C(O)/C=C/c1c[nH]cn1 [Urocanic acid]
- activity at 2 µg/mL ([1]; 3D7, 72 h, P. falciparum, 72 h, screen at 2 μg/mL, replicate 1, read-out: Pf_72h_%Growth_Rep1): 79.2%
- activity at 2 µg/mL ([1]; 3D7, 72 h, P. falciparum, 72 h, screen at 2 μg/mL, replicate 2, read-out: Pf_72h_%Growth_Rep2): 89.3%
- activity at 2 µg/mL ([2]; 3D7, 120 h, P. falciparum, 120 h, screen at 2 μg/mL, replicate 1, read-out: Pf_120h_%Growth_Rep1): 81.3%
- activity at 2 µg/mL ([2]; 3D7, 120 h, P. falciparum, 120 h, screen at 2 μg/mL, replicate 2, read-out: Pf_120h_%Growth_Rep2): 51.9%
- percent parasite growth at 2 µg/mL [3, 12]: 81%
- percent parasite growth at 2 µg/mL [3, 13]: 70.9%

SMILES: CC[C@H]1OC(=O)[C@H](C)[C@@H](O[C@H]2C[C@@](C)(OC)[C@@H](O)[C@H](C)O2)[C@H](C)[C@@H](O[C@@H]2O[C@H](C)C[C@H](N(C)C)[C@H]2O)[C@](C)(O)C[C@@H](C)C(=NO)[C@H](C)[C@@H](O)[C@]1(C)O [Erythromycin A oxime]
- Pf_72h_%Growth_Rep1 [1, 8]: 85.19%
- Pf_72h_%Growth_Rep2 [1, 9]: 75.74%
- Pf_120h_%Growth_Rep1 [2, 10]: 78.37%
- Pf_120h_%Growth_Rep2 [2, 11]: 65.13%
- Tg_72h_%Growth_Rep1 [3, 8]: 42.42%
- Tg_72h_%Growth_Rep2 [3, 9]: 49.55%

SMILES: COc1cc(O)c2c(=O)oc3c(O)c(OC)cc(C)c3c2c1 [BIA-G1559]
- Pf_72h_%Growth_Rep1 ([1]; P. falciparum 3D7, 72 h, library screen at 2 μg/mL, % growth, replicate 1): 89.69%
- Pf_72h_%Growth_Rep2 ([1]; P. falciparum 3D7, 72 h, library screen at 2 μg/mL, % growth, replicate 2): 92.13%
- Pf_120h_%Growth_Rep1 ([2]; P. falciparum 3D7, 120 h, library screen at 2 μg/mL, % growth, replicate 1): 94.64%
- Pf_120h_%Growth_Rep2 ([2]; P. falciparum 3D7, 120 h, library screen at 2 μg/mL, % growth, replicate 2): 147.16%
- Tg_72h_%Growth_Rep1 ([3]; T. gondii RH, 72 h, library screen at 2 μg/mL, % growth, replicate 1): 136.29%
- Tg_72h_%Growth_Rep2 ([3]; T. gondii RH, 72 h, library screen at 2 μg/mL, % growth, replicate 2): 91.52%

SMILES: CN(C)[C@@H]1C(=O)C(C(=O)NCN2CCN(CCO)CC2)=C(O)[C@@]2(O)C(=O)C3=C(O)c4c(O)cccc4[C@@](C)(O)[C@H]3C[C@@H]12 [BIA-P1473]
- Pf_72h_%Growth_Rep1 [1, 14]: 83.77%
- Pf_72h_%Growth_Rep2 [1, 15]: 98.47%
- Pf_120h_%Growth_Rep1 [2, 16]: 88.47%
- Pf_120h_%Growth_Rep2 [2, 17]: 132.29%
- Tg_72h_%Growth_Rep1 [3, 18]: 118.64%
- Tg_72h_%Growth_Rep2 [3, 19]: 93.61%

SMILES: COc1ccc2c(c1OC)C[N+]1(C)CCc3cc4c(cc3C1C2)OCO4.[I-] (stereo not drawn) [BIA-M1962]
- Pf_72h_%Growth_Rep1 [1, 14]: 14.79%
- Pf_72h_%Growth_Rep2 [1, 15]: 27.45%
- Pf_120h_%Growth_Rep1 [2, 16]: 5.27%
- Pf_120h_%Growth_Rep2 [2, 17]: 17.95%
- Tg_72h_%Growth_Rep1 [3, 18]: 93.48%
- Tg_72h_%Growth_Rep2 [3, 19]: 106.99%

SMILES: CC1=C[C@]2(C)/C=C(C)/C=C/C[C@@H](O)/C=C3C=C/C(=C4\C(=O)O[C@]2(C[C@@H]1C)C4=O)OC/3 [Spirohexenolide A]
- Pf_72h_%Growth_Rep1 [1, 20]: 8.85%
- Pf_72h_%Growth_Rep2 [1, 21]: 0.46%
- Pf_120h_%Growth_Rep1 [2, 22]: 19.42%
- Pf_120h_%Growth_Rep2 [2, 23]: -9.19%
- Tg_72h_%Growth_Rep1 [3, 24]: 115.19%
- Tg_72h_%Growth_Rep2 [3, 25]: 70.63%

SMILES: O=C1N[C@@H](Cc2ccccc2)C(=O)N[C@H]1Cc1ccccc1 [Cyclo(L-Phe-L-Phe)]
- Pf_72h_%Growth_Rep1 [1, 26]: 87.79%
- Pf_72h_%Growth_Rep2 [1, 27]: 85.43%
- Pf_120h_%Growth_Rep1 [2, 28]: 99.78%
- Pf_120h_%Growth_Rep2 [2, 29]: 97.44%
- Tg_72h_%Growth_Rep1 [3, 30]: 128.27%
- Tg_72h_%Growth_Rep2 [3, 31]: 97.95%

SMILES: CC(=O)c1c(O)cc(O)c(C(C)=O)c1O [Diacetylphloroglucinol]
- Pf_72h_%Growth_Rep1 [1, 8]: 86.52%
- Pf_72h_%Growth_Rep2 [1, 9]: 90.35%
- Pf_120h_%Growth_Rep1 [2, 10]: 64.84%
- Pf_120h_%Growth_Rep2 [2, 11]: 102.18%
- Tg_72h_%Growth_Rep1 [3, 8]: 140.70%
- Tg_72h_%Growth_Rep2 [3, 9]: 94.75%

SMILES: CC(=O)c1c(O)c(C(C)=O)c(O)c(C(C)=O)c1O [Triacetylphloroglucinol]
- Pf_72h_%Growth_Rep1 [1, 26]: 83.84%
- Pf_72h_%Growth_Rep2 [1, 27]: 50.48%
- Pf_120h_%Growth_Rep1 [2, 28]: 80.17%
- Pf_120h_%Growth_Rep2 [2, 29]: 112.26%
- Tg_72h_%Growth_Rep1 [3, 30]: 132.07%
- Tg_72h_%Growth_Rep2 [3, 31]: 93.42%

SMILES: CN(N=O)C(=O)N[C@H]1C(O)O[C@H](CO)[C@@H](O)[C@@H]1O (mixture of isomers) [Streptozotocin]
- Pf_72h_%Growth_Rep1 [1, 20]: 87.59%
- Pf_72h_%Growth_Rep2 [1, 21]: 86.69%
- Pf_120h_%Growth_Rep1 [2, 22]: 176.62%
- Pf_120h_%Growth_Rep2 [2, 23]: 92.69%
- Tg_72h_%Growth_Rep1 [3, 24]: 87.36%
- Tg_72h_%Growth_Rep2 [3, 25]: 105.65%
